# Earlier results, collected in patent US20240139293A1, “Compositions and Methods for Enhancing Anti-Viral Therapies” (XORTX THERAPEUTICS, INC., priority 2021, published 2024).
# Tested on: SARS-CoV-2
# Conditions: cited study: SARS-CoV-2 replication in vivo and in vitro
structure (smiles),measurement,value
CCCN(CCC)S(=O)(=O)c1ccc(C(=O)O)cc1 [probenecid],viral load due to Coronavirus,can decrease viral load
